Source: the supplement of paper PMC11208160

Assay: recombinant barcode read abundance after kanamycin selection (control-corrected) (log10(CPM+1)); higher = more efficient recombination; sequences stand for … in AGTGCAGAGAAAATCGGCCAGTTTTCTCTGCCTGCAGTCCGCATGCCGT…AGATTTATGCAGCGGACTGCCTTTCTCCCAAAGTGATAAACCGGACAGTATCATGGACCGGTTTTCCCGGTAATCCGTATTTGCAAGGTTGGTTTCACT; site = the 11-nt target
Outline: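 Two replicates per condition were plated: chloramphenicol/ampicillin LB agar for the control, and chloramphenicol/ampicillin/kanamycin with 0.1 mM IPTG for selection. The pooled E. coli screen behind them paired targets with IS621 bridge RNA target-binding loops. Recombination efficiency is expressed from averaged, control-corrected barcode counts per million at recombinant junctions, as log10(CPM+1).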
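Also: IS621 recombinase and bridge RNA in Escherichia coli cells.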

Sequence | recombinant barcode read abundance (log10)
GCAGCCTCTTGGGTTCTAACCTGTTGCGT (site ATGTGAACTCA) | 0.00651
GCAGCCTCTTGGGTTCTAACCTGTTGCGT (site GCAGCCTCTAC) | 2.08
GCAGCTACTTGGGTTCTAACCTGTTGCTG (site ACAGCTACTAA) | 0.0295
GCAGCTACTTGGGTTCTAACCTGTTGCTG (site GCAGCTACTCA) | 0.694
GCATCCTCTTGGGTTCTAACCTGTTGCCA (site AGGAGTACTAA) | 0.146
GCATCCTCTTGGGTTCTAACCTGTTGCCA (site GCATCCTCTTG) | 0.584
GCATGTCCTTGGGTTCTAACCTGTTGCAT (site GAATGTCCTAT) | 0.128
GCATGTCCTTGGGTTCTAACCTGTTGCAT (site GCATGTCCTAT) | 1.37
GCCAAACCTTGGGTTCTAACCTGTTGCCT (site GCCAAACCTAG) | 0.0479
GCCAAACCTTGGGTTCTAACCTGTTGCCT (site GCCACACCTAG) | 0.0741
GCCAAACCTTGGGTTCTAACCTGTTGCCT (site GCCAGACCTAG) | 0.458
GCCAAACCTTGGGTTCTAACCTGTTGCCT (site GCCATACCTAG) | 0.184
GCCAACCCTTGGGTTCTAACCTGTTGCGT (site GCCAACCCTAA) | 0.212
GCCAACCCTTGGGTTCTAACCTGTTGCGT (site GCCAACCCTAC) | 0.276
GCCAACCCTTGGGTTCTAACCTGTTGCGT (site GCCAACCCTAG) | 0.149
GCCAACCCTTGGGTTCTAACCTGTTGCGT (site GCCAACCCTAT) | 0.162
GCCACTCCTTGGGTTCTAACCTGTTGCGT (site GCCACTCCTAC) | 0.297
GCCACTCCTTGGGTTCTAACCTGTTGCGT (site GTCAATCCTAC) | 0.185
GCCATTACTTGGGTTCTAACCTGTTGCCT (site GCCATAACTAG) | 0.0468
GCCATTACTTGGGTTCTAACCTGTTGCCT (site GCCATCACTAG) | 0.0409
GCCATTACTTGGGTTCTAACCTGTTGCCT (site GCCATGACTAG) | 0.297
GCCATTACTTGGGTTCTAACCTGTTGCCT (site GCCATTACTAG) | 0.0923

Sequence | recombinant barcode read abundance (log10)
GCCATTCCTTGGGTTCTAACCTGTTGCAT (site AGAGCCACTTA) | 0.0467
GCCATTCCTTGGGTTCTAACCTGTTGCAT (site GCCATTCCTAT) | 0.347
GCCCATGCTTGGGTTCTAACCTGTTGCGG (site CATTTCACTAG) | 0.144
GCCCATGCTTGGGTTCTAACCTGTTGCGG (site GCCCATGCTCC) | 2.05
GCCGACCCTTGGGTTCTAACCTGTTGCCG (site GCCGACCCTCG) | 0.492
GCCGACCCTTGGGTTCTAACCTGTTGCCG (site GCCTACCCTCC) | 0.0507
GCCGAGACTTGGGTTCTAACCTGTTGCCT (site GCCGAAACTAG) | 0.48
GCCGAGACTTGGGTTCTAACCTGTTGCCT (site GCCGACACTAG) | 0.0133
GCCGAGACTTGGGTTCTAACCTGTTGCCT (site GCCGAGACTAG) | 0.34
GCCGAGACTTGGGTTCTAACCTGTTGCCT (site GCCGATACTAG) | 0.121
GCCGAGTCTTGGGTTCTAACCTGTTGCTT (site GCCGAGTCTAA) | 0.688
GCCGAGTCTTGGGTTCTAACCTGTTGCTT (site GCCGAGTCTCA) | 0.0689
GCCGAGTCTTGGGTTCTAACCTGTTGCTT (site GCCGAGTCTGA) | 0.0417
GCCGAGTCTTGGGTTCTAACCTGTTGCTT (site GCCGAGTCTTA) | 0.6
GCCGATACTTGGGTTCTAACCTGTTGCCA (site AGTCTGCCTCA) | 0.134
GCCGATACTTGGGTTCTAACCTGTTGCCA (site GCCGATACTTG) | 0
GCCGATTCTTGGGTTCTAACCTGTTGCCT (site ACCGATTCTAT) | 0.0154
GCCGATTCTTGGGTTCTAACCTGTTGCCT (site GCCGATTCTAG) | 0.0394
GCCGCGACTTGGGTTCTAACCTGTTGCCT (site GCAGCGACTAG) | 0.207
GCCGCGACTTGGGTTCTAACCTGTTGCCT (site GCCGCGACTAG) | 0.236
GCCGCGACTTGGGTTCTAACCTGTTGCCT (site GCGGCGACTAG) | 0.204
GCCGCGACTTGGGTTCTAACCTGTTGCCT (site GCTGCGACTAG) | 0.262

Sequence | recombinant barcode read abundance (log10)
GCCTACCCTTGGGTTCTAACCTGTTGCGG (site GCCGACCCTCG) | 0.0988
GCCTACCCTTGGGTTCTAACCTGTTGCGG (site GCCTACCCTCC) | 0.483
GCCTATTCTTGGGTTCTAACCTGTTGCGT (site GCCTATTCTAC) | 0.4
GCCTATTCTTGGGTTCTAACCTGTTGCGT (site TCCGATTCTAC) | 0.0523
GCCTGTTCTTGGGTTCTAACCTGTTGCCT (site GACTGTTCTAG) | 0.238
GCCTGTTCTTGGGTTCTAACCTGTTGCCT (site GCCTGTTCTAG) | 0.462
GCCTGTTCTTGGGTTCTAACCTGTTGCCT (site GGCTGTTCTAG) | 0.0257
GCCTGTTCTTGGGTTCTAACCTGTTGCCT (site GTCTGTTCTAG) | 0.137
GCGAACACTTGGGTTCTAACCTGTTGCTT (site GCGAACACTAA) | 1.9
GCGAACACTTGGGTTCTAACCTGTTGCTT (site GCGAAGTCTAA) | 0.194
GCGAGCCCTTGGGTTCTAACCTGTTGCGT (site GCGAGCCCTAC) | 2.52
GCGAGCCCTTGGGTTCTAACCTGTTGCGT (site GCTAGCCCTCC) | 0.0583
GCGCCCTCTTGGGTTCTAACCTGTTGCCG (site CAATTACCTAA) | 0.194
GCGCCCTCTTGGGTTCTAACCTGTTGCCG (site GCGCCCTCTCG) | 0.606
GCGCCTCCTTGGGTTCTAACCTGTTGCAT (site GCGACTCCTAT) | 0.144
GCGCCTCCTTGGGTTCTAACCTGTTGCAT (site GCGCCTCCTAT) | 0.504
GCGCCTCCTTGGGTTCTAACCTGTTGCAT (site GCGGCTCCTAT) | 0
GCGCCTCCTTGGGTTCTAACCTGTTGCAT (site GCGTCTCCTAT) | 0.0165
GCGCGCCCTTGGGTTCTAACCTGTTGCGG (site GCGCGCCCTCA) | 0.101
GCGCGCCCTTGGGTTCTAACCTGTTGCGG (site GCGCGCCCTCC) | 1.63
GCGCGTGCTTGGGTTCTAACCTGTTGCCT (site GCACGTGCTAG) | 1.11
GCGCGTGCTTGGGTTCTAACCTGTTGCCT (site GCCCGTGCTAG) | 0.539

Sequence | recombinant barcode read abundance (log10)
GCGCGTGCTTGGGTTCTAACCTGTTGCCT (site GCGCGTGCTAG) | 0.584
GCGCGTGCTTGGGTTCTAACCTGTTGCCT (site GCTCGTGCTAG) | 0.11
GCGCTAGCTTGGGTTCTAACCTGTTGCCT (site ACGCTAGCTAG) | 0.125
GCGCTAGCTTGGGTTCTAACCTGTTGCCT (site CCGCTAGCTAG) | 0.0832
GCGCTAGCTTGGGTTCTAACCTGTTGCCT (site GCGCTAGCTAG) | 0.205
GCGCTAGCTTGGGTTCTAACCTGTTGCCT (site TCGCTAGCTAG) | 0.111
GCGCTTACTTGGGTTCTAACCTGTTGCCT (site GAGCTTACTAG) | 0.191
GCGCTTACTTGGGTTCTAACCTGTTGCCT (site GCGCTTACTAG) | 0.665
GCGCTTACTTGGGTTCTAACCTGTTGCCT (site GGGCTTACTAG) | 0.0205
GCGCTTACTTGGGTTCTAACCTGTTGCCT (site GTGCTTACTAG) | 0.0591
GCGGAAGCTTGGGTTCTAACCTGTTGCCT (site GAGGAAGCTAG) | 0.192
GCGGAAGCTTGGGTTCTAACCTGTTGCCT (site GCGGAAGCTAG) | 0.312
GCGGAAGCTTGGGTTCTAACCTGTTGCCT (site GGGGAAGCTAG) | 0.469
GCGGAAGCTTGGGTTCTAACCTGTTGCCT (site GTGGAAGCTAG) | 0.181
GCGGGGTCTTGGGTTCTAACCTGTTGCCT (site ACGGGGTCTAG) | 0.786
GCGGGGTCTTGGGTTCTAACCTGTTGCCT (site CCGGGGTCTAG) | 0.627
GCGGGGTCTTGGGTTCTAACCTGTTGCCT (site GCGGGGTCTAG) | 1.2
GCGGGGTCTTGGGTTCTAACCTGTTGCCT (site TCGGGGTCTAG) | 0.231
GCGGTATCTTGGGTTCTAACCTGTTGCCT (site GCGGTATCTAG) | 1.21
GCGGTATCTTGGGTTCTAACCTGTTGCCT (site GGGGTATCTAG) | 0.105
